Test results from PubChem BioAssay AID1918954 (Molecular Pharmacology Branch, DTP, NCI, 2023).
“And” between values parts separate entries of the source, which are not always exact repeats. Identical values can stand only once.

System: MDA-MB-468 complex spheroids with HUVEC/MSC, viability
Assay: Anticancer human tumor MDA-MB-468 cell line growth inhibition;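 also: spheroids exposed to agents for seven days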;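 as to viability, T/C: 100% = DMSO vehicle control viability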
Conditions: for viability, T/C: stronger effect = lower value
Excerpt: Multicellular complex tumor spheroid response to LSD1 Inhibitor Iadademstat in combination with a variety of drugs and investigational agents in selected tumor cell lines
The current study was undertaken to assess response to LSD1 inhibitors in combination with standard-of-care drugs and investigational agents in solid tumor complex spheroid models as well as in the K-562 leukemia. Complex spheroids include a stromal component modeled by human endothelial cells (HUVEC) and fibroblasts modeled by human mesenchymal stem cells (MSCs). The concentration ranges selected for each drug and investigational agent were based upon clinically achievable concentrations if the clinical Cmax of the agent was known.
Compounds. The drugs and investigational agents used in this study are listed on Table 1. All of the agents used, including staurosporine (NSC755774) and gemcitabine (NSC613327), were obtained from the Developmental Therapeutics Program, NCI. FDA-approved anticancer drugs are available from the NCI at http://dtp.nci.nih.gov/branches/dscb/oncology_drugset_explanation.html. Drugs and investigational agents were >95% pure by proton nuclear magnetic resonance (NMR) and liquid chromatography/mass spectrometry (LC/MS). Stock solutions were prepared at 400x in DMSO, stored at -70 degrees C, and diluted in fresh medium prior to their use. The final concentration of DMSO in cell culture wells never exceeded 0.25% (v/v). The FDA-approved anticancer drug set is available from the Developmental Therapeutics Program at https://dtp.cancer.gov/organization/dscb/obtaining/available_plates.htm. All drugs and investigational agents were tested over a range starting from a high concentration at or near the clinical Cmax and decreasing in half-log increments. If the clinical Cmax for an agent had not been determined, the highest concentration tested was 10 microM.
Cell Lines. The patient-derived cancer cell (PDC) lines: 292921-168-R-J2-PDC, K24384-001-R-PDC, and 521955-158-R2-J5-PDC pancreatic carcinomas, 556581-035-R-J1 ovarian carcinoma, 324938-238-R-J1-PDC, 855422-203-R-J1-PDC and 883617-216-R-J1-PDC urothelial bladder carcinomas, 743489-274-T-PDC renal cell carcinoma, 138582-R-J1 Merkel cell tumor, K60290-347-R-J1 and K57222-313-R-J1-PDC glioblastomas, 653999-131-R-J2-PDC, LG0703-F948-PDC, and 349418-098-R-PDC non-small cell lung carcinomas, 885512-296-R-J2-PDC, 171881-019-R-J1-PDC breast carcinomas and 186277-243-T-J2-PDC and 233499-124-R-J2-PDC colon carcinomas were obtained from the NCI Patient-Derived Models Repository (PDMR, https://pdmr.cancer.gov). The established cell lines NCI/ADR-RES (RRID:CVCL_14520 and OVCAR-5 (RRID:CVCL_1628) ovarian carcinomas, 786-O (RRID:CVCL_1051) and A498 (RRID:CVCL_A498) renal cell carcinoma, NCI-H211 (ATCC, cat. CRL-5824; RRID:CVCL_1529), NCI-H196 (ATCC, cat. CRL-5823, RRID:CVCL_1509), SW 1271 (ATCC, cat. CRL-2177, RRID:CVCL_1716) and NCI-H1876 (ATCC, cat. CRL-5902, RRID:CVCL_1503) small cell lung carcinomas, MDA-MB-231 (RRID:CVCL_0062) and MDA-MB-468 (RRID:CVCL_0419)breast carcinomas (10-12). Pooled donor human umbilical vein endothelial cells (HUVEC, Lonza, cat. CC-2519) and human mesenchymal stem cells (hMSC, Lonza, cat. PT-2501) were purchased from Lonza (Walkersville, MD).
Cell Culture. All cells were maintained in an incubator at 37 degrees C and 5% CO2 with 95% humidity. The PDC lines were cultured according to standard operating procedures established by the NCI PDMR (https://pdmr.cancer.gov). Briefly all PDCs were thawed and cultured in Matrigel-coated flasks prepared with a working solution of 1X Ham's F-12 nutrient mix, without supplementation (Invitrogen, Waltham, MA, cat. 11765054), 100 U/mL penicillin-streptomycin (Invitrogen, cat. 15140122), and 2.5% Matrigel (Corning Inc., Corning, NY, cat. 354248) for the first three passages. […]

[1] = curve of first compound, second compound 0.1 µM
[2] = curve of first compound, second compound 0.316 µM
[3] = curve of first compound, second compound 1 µM
[4] = curve of first compound, second compound 3.16 µM
[5] = curve of first compound, second compound 10 µM

**Q.** What does the source list for `O=C(C=Cc1cccc(S(=O)(=O)Nc2ccccc2)c1)NO` + NC1CCC(NC2CC2c2ccccc2)CC1?
**A.** IC50 [1]: 81.6 nM; IC50 [2]: 77.5 nM; IC50 [3]: 67.3 nM; IC50 [4]: 61.3 nM; IC50 [5]: 9.78 nM; viability, T/C (second compound 0.1 µM, first compound 0.00949 µM): 90.7%; viability, T/C (second compound 0.1 µM, first compound 0.03 µM): 81.5%; viability, T/C (second compound 0.1 µM, first compound 0.0949 µM): 44.5%; viability, T/C (second compound 0.1 µM, first compound 0.3 µM): 15%; viability, T/C (second compound 0.1 µM, first compound 0.949 µM): 2.65%; viability, T/C (second compound 0.1 µM, first compound 3 µM): 4.46%; viability, T/C (second compound 0.316 µM, first compound 0.00949 µM): 86.7%; viability, T/C (second compound 0.316 µM, first compound 0.03 µM): 73.6%; viability, T/C (second compound 0.316 µM, first compound 0.0949 µM): 45.1%; viability, T/C (second compound 0.316 µM, first compound 0.3 µM): 17%; viability, T/C (second compound 0.316 µM, first compound 0.949 µM): 2.84%; viability, T/C (second compound 0.316 µM, first compound 3 µM): 4.29%; viability, T/C (second compound 1 µM, first compound 0.00949 µM): 74.1%; viability, T/C (second compound 1 µM, first compound 0.03 µM): 65.7%; viability, T/C (second compound 1 µM, first compound 0.0949 µM): 42.9%; viability, T/C (second compound 1 µM, first compound 0.3 µM): 18.7%; viability, T/C (second compound 1 µM, first compound 0.949 µM): 3.4%; viability, T/C (second compound 1 µM, first compound 3 µM): 3.26%; viability, T/C (second compound 3.16 µM, first compound 0.00949 µM): 68.9%; viability, T/C (second compound 3.16 µM, first compound 0.03 µM): 64.4%; viability, T/C (second compound 3.16 µM, first compound 0.0949 µM): 41%; viability, T/C (second compound 3.16 µM, first compound 0.3 µM): 15.4%; viability, T/C (second compound 3.16 µM, first compound 0.949 µM): 3.52%; viability, T/C (second compound 3.16 µM, first compound 3 µM): 3.55%; viability, T/C (second compound 10 µM, first compound 0.00949 µM): 49.8%; viability, T/C (second compound 10 µM, first compound 0.03 µM): 48.4%; viability, T/C (second compound 10 µM, first compound 0.0949 µM): 36.3%; viability, T/C (second compound 10 µM, first compound 0.3 µM): 13.8%; viability, T/C (second compound 10 µM, first compound 0.949 µM): 3.3%; viability, T/C (second compound 10 µM, first compound 3 µM): 2.37%

**Q.** What does the source list for `CC(C)CC(NC(=O)C(Cc1ccccc1)NC(=O)c1cnccn1)B(O)O` (stereo not drawn) + NC1CC1c1ccc(-c2cccc(O)c2)cc1?
**A.** IC50 [1]: < 0.316 nM; IC50 [2]: < 0.316 nM; IC50 [3]: < 0.316 nM; IC50 [4]: < 0.316 nM; IC50 [5]: < 0.316 nM; viability, T/C (second compound 0.1 µM, first compound 0.000316 µM): 5.95%; viability, T/C (second compound 0.1 µM, first compound 0.001 µM): 0.09%; viability, T/C (second compound 0.1 µM, first compound 0.00316 µM): 0.06%; viability, T/C (second compound 0.1 µM, first compound 0.01 µM): 0.05%; viability, T/C (second compound 0.1 µM, first compound 0.0316 µM): 0.08%; viability, T/C (second compound 0.1 µM, first compound 0.1 µM): 0.18%; viability, T/C (second compound 0.316 µM, first compound 0.000316 µM): 6.43%; viability, T/C (second compound 0.316 µM, first compound 0.001 µM): 0.09%; viability, T/C (second compound 0.316 µM, first compound 0.00316 µM): 0.05%; viability, T/C (second compound 0.316 µM, first compound 0.01 µM): 0.07%; viability, T/C (second compound 0.316 µM, first compound 0.0316 µM): 0.08%; viability, T/C (second compound 0.316 µM, first compound 0.1 µM): 0.17%; viability, T/C (second compound 1 µM, first compound 0.000316 µM): 5.88%; viability, T/C (second compound 1 µM, first compound 0.001 µM): 0.08%; viability, T/C (second compound 1 µM, first compound 0.00316 µM): 0.05%; viability, T/C (second compound 1 µM, first compound 0.01 µM): 0.04%; viability, T/C (second compound 1 µM, first compound 0.0316 µM): 0.06%; viability, T/C (second compound 1 µM, first compound 0.1 µM): 0.17%; viability, T/C (second compound 3.16 µM, first compound 0.000316 µM): 5.66%; viability, T/C (second compound 3.16 µM, first compound 0.001 µM): 0.06%; viability, T/C (second compound 3.16 µM, first compound 0.00316 µM): 0.07%; viability, T/C (second compound 3.16 µM, first compound 0.01 µM): 0.04%; viability, T/C (second compound 3.16 µM, first compound 0.0316 µM): 0.14%; viability, T/C (second compound 3.16 µM, first compound 0.1 µM): 0.15%; viability, T/C (second compound 10 µM, first compound 0.000316 µM): 3.55%; viability, T/C (second compound 10 µM, first compound 0.001 µM): 0.16%; viability, T/C (second compound 10 µM, first compound 0.00316 µM): 0.12%; viability, T/C (second compound 10 µM, first compound 0.01 µM): 0.12%; viability, T/C (second compound 10 µM, first compound 0.0316 µM): 0.14%; viability, T/C (second compound 10 µM, first compound 0.1 µM): 0.2%

**Q.** For `COc1cc(Nc2ncc3c(n2)-c2ccc(Cl)cc2C(c2c(F)cccc2OC)=NC3)ccc1C(=O)O`, which viability, T/C (compound 0.00316 µM) is on record?
**A.** 69.6% and 17.2%

**Q.** And the viability, T/C (compound 0.01 µM)?
**A.** 28.3% and 7.92%

**Q.** And the viability, T/C (compound 0.0316 µM)?
**A.** 17.4% and 5.89%

**Q.** What about the viability, T/C (compound 0.1 µM) of the same molecule?
**A.** 8.67% and 6.08%

**Q.** What about the viability, T/C (compound 0.316 µM) of the same molecule?
**A.** 7.8% and 4.66%

**Q.** What about the viability, T/C (compound 1 µM) of the same molecule?
**A.** 7.38% and 3%

**Q.** And the IC50 (curve of compound)?
**A.** 5.54 nM and < 3.16 nM

**Q.** Which results are given for `CC1COCCN1c1cc(-c2ccnn2C)c2ccnc(-c3ccn[nH]3)c2n1` (stereo not drawn)?
**A.** viability, T/C (compound 0.00316 µM): 81.2% and 38.9%; viability, T/C (compound 0.01 µM): 54.9% and 37.5%; viability, T/C (compound 0.0316 µM): 35.7% and 19.3%; viability, T/C (compound 0.1 µM): 27% and 8.03%; viability, T/C (compound 0.316 µM): 15.8% and 5.94%; viability, T/C (compound 1 µM): 12.2% and 2.35%; IC50 (curve of compound): 13.7 nM and < 3.16 nM

**Q.** How did the viability, T/C (compound 0.0316 µM) turn out when `CC1COCCN1c1cc(C2(S(C)(=N)=O)CC2)nc(-c2ccnc3[nH]ccc23)n1` (stereo not drawn) was run?
**A.** 101% and 78.9%

**Q.** What about the viability, T/C (compound 0.1 µM) of the same molecule?
**A.** 67.4% and 88.1%

**Q.** What about the viability, T/C (compound 0.316 µM) of the same molecule?
**A.** 50.6% and 66.4%

**Q.** What about the viability, T/C (compound 1 µM) of the same molecule?
**A.** 30.4% and 46%

**Q.** And the viability, T/C (compound 3.16 µM)?
**A.** 21.9% and 24.2%

**Q.** What about the viability, T/C (compound 10 µM) of the same molecule?
**A.** 11.6% and 9.82%

**Q.** And the IC50 (curve of compound)?
**A.** 282 nM and 835 nM

**Q.** Which results are given for `Cn1ncnc1C1c2n[nH]c(=O)c3cc(F)cc(c23)NC1c1ccc(F)cc1` (stereo not drawn)?
**A.** viability, T/C (compound 0.000316 µM): 103% and 96.9%; viability, T/C (compound 0.001 µM): 86.7% and 79.6%; viability, T/C (compound 0.00316 µM): 77.2% and 65.3%; viability, T/C (compound 0.01 µM): 72% and 75%; viability, T/C (compound 0.0316 µM): 61.2% and 64.5%; viability, T/C (compound 0.1 µM): 60.7% and 50.9%; IC50 (curve of compound): > 100 nM
